From publication PMC9549714 (iScience, 2022)

What was measured:
[1] = target: T1, PPAT (phosphoribosyl pyrophosphate amidotransferase) (Homo sapiens, UniProt Q06203); assay: PPAT activity assay, presumably as above; assay type: biochemical
[2] = target: T1, PPAT (phosphoribosyl pyrophosphate amidotransferase); assay: glutamate production from glutamine and PRPP, glutamate assay kit; assay type: biochemical

T1 sequence (Q06203 12-517): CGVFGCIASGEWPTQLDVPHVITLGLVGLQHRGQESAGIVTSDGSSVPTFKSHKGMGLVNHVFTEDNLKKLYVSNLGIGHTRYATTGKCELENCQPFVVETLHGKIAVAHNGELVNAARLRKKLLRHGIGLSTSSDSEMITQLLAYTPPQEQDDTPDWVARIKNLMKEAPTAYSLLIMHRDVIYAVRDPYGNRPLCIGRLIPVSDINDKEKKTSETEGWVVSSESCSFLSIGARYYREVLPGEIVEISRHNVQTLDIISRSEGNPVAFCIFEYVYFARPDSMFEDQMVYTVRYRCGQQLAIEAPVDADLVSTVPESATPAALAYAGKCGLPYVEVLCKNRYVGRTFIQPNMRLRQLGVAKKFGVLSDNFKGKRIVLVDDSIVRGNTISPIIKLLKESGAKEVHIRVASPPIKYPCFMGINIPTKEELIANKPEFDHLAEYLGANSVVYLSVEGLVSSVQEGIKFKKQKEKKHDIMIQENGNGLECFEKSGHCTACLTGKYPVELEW

IC50 [1] [µM]	IC50 [2] [µM]	Structure (SMILES)
49.9		Cc1cc2nc3c(=O)[nH]c(=O)nc-3n(C[C@H](O)[C@H](O)[C@H](O)CO)c2cc1C [riboflavin]
	7.5	Cc1cc2nc3c(=O)[nH]c(=O)nc-3n(C[C@H](O)[C@H](O)[C@H](O)COP(=O)(O)O)c2cc1C [ZINC8551105, riboflavin 5′-monophosphate]
